Converted amounts (≈) assume the structure as drawn. Marks after values point to notes of the source that are not given here.
Legend:
physchem = details: water
[1] = Physical stability of aqueous corticosteroid solutions (ethanol stock added to saline or x-ray contrast agent)
[2] = tested on: focal cerebral ischemia (middle cerebral artery occlusion); assay: Focal cerebral ischemia, intraluminal suture occlusion of the middle cerebral artery (MCAO); relative infarction volume by TTC staining; type: in vivo; details: for Relative infarction volume expressed as percent of the total brain volume of the right hemisphere, mean: 0.012 mg/kg intrathecal single dose (example 3), control 18.08, n 15
[3] = Solubility in water at room temperature
[4] = Blood glucose with glucose oxidase reagent strips in the MCAO animals of Example 5; details: intrathecal 0.012 mg/kg; venous blood preoperatively, prior to, 2 h and 24 h after administration; versus saline control (FIG. 1)
[5] = Isovist 300, time after mixing 0

| solubility (physchem) [µg/mL] | Physical stability (appearance) ([1]; Saline, 2 h after mixing) | Physical stability (appearance) ([1]; Ultravist 300, 2 h after mixing) | Physical stability (appearance) ([1]; Ultravist 300, 48 h after mixing) | Physical stability (appearance) ([1]; Ultravist 300, time after mixing 0) | SMILES | Physical stability (appearance) ([1]; Isovist 300, 2 h after mixing) | Physical stability (appearance) ([1]; Isovist 300, 48 h after mixing) | Physical stability (appearance) [1, 5] | Physical stability (appearance) ([1]; Saline, time after mixing 0) | Relative infarction volume expressed as percent of the total brain volume of the right hemisphere, mean ([2]; drug administration 30 Min after MCAO) | Relative infarction volume expressed as percent of the total brain volume of the right hemisphere, mean ([2]; drug administration 1 h after MCAO) | Relative infarction volume expressed as percent of the total brain volume of the right hemisphere, mean ([2]; drug administration 2 h after MCAO) | Relative infarction volume expressed as percent of the total brain volume of the right hemisphere, mean ([2]; drug administration 4 h after MCAO) | reduction in infarction size compared to controls ([2]; 0.012 mg/kg intrathecally, preparation of example 2, 30 minutes after MCA occlusion) [%] | infarction volume (percent of the total brain volume of the right hemisphere) ([2]; 0.012 mg/kg intrathecally, preparation of example 2, 30 minutes after MCA occlusion, sacrificed 24 h after MCAO, controls 20.0±8.0%, p=0.02) [%] | solubility [3] [µg/mL] | effect on blood glucose [4] | Physical stability (appearance) ([1]; Ultravist 370, 2 h after mixing) | Physical stability (appearance) ([1]; Ultravist 370, 48 h after mixing) | Physical stability (appearance) ([1]; Ultravist 370, time after mixing 0) |
| --- | --- | --- | --- | --- | --- | --- | --- | --- | --- | --- | --- | --- | --- | --- | --- | --- | --- | --- | --- | --- |
| ~85 (≈ 217 µM) | clear | clear | clear | clear | C[C@@H]1C[C@H]2[C@@H]3CCC4=CC(=O)C=C[C@]4(C)[C@@]3(F)[C@@H](O)C[C@]2(C)[C@@]1(O)C(=O)CO [Dexamethasone, dexamethasone] | clear | clear | clear | clear | – | – | – | – | – | – | – | – | – | – | – |
| – | – | – | – | – | CC1(C)O[C@@H]2C[C@H]3[C@@H]4CCC5=CC(=O)C=C[C@]5(C)[C@@]4(F)[C@@H](O)C[C@]3(C)[C@]2(C(=O)CO)O1 [Triamcinolone acetonide] | clear | fine particles | clear | clear (?) | 12.86* percent | 9.68** percent | 10.57* percent | 9.05** percent | 33 | 13.4±6.5 | ~20 (≈ 46 µM) | does not cause any additional effect | clear | clear | clear |

From patent US20070004692A1, “Preparations and therapy of intrathecal inflammatory disease” (priority 2005, published 2007)
